EP0373543A2, “Diagnostic media and assay for detecting fungicide resistance” (BASF Corporation, priority 1988, dated 1990)

System: Rhizopus nigricans
Assay: Color change diameter on bromcresol purple media containing vinclozolin (Example 2)
Assay type: cell-based
Parameters: key to COLOR CHANGE DIAMETER: T = only slight color change
Settings: for COLOR CHANGE DIAMETER: 20 hours
Experimental: To a stock solution of 0.4 g bromcresol purple in 260 mls of 0.01N sodium hydroxide, either 40 g of potato dextrose agar (PDA) or 40 g dextrose and 20 g agar (WA-dextrose medium) were added and the total volume brought up to 1 liter using distilled water. After autoclaving the media, a solution of vinclozolin in 5 mls of ethanol was added to afford 5 or 10 ppm concentrations and dispensed into petri plates (10 ml/plate). Sporulating cultures of Botrytis cinerea and Rhizopus nigricans (also known as Rhizopus stolonifer) were grown for two weeks on potato dextrose agar. Spores were transferred to the diagnostic media using sterile cotton tipped swabs and incubated for 20 hours at room temperature. The media was macroscopically examined and the diameter of color change detectable in the media was then measured.

In the case of `C=CC1(C)OC(=O)N(c2cc(Cl)cc(Cl)c2)C1=O` (stereo not drawn) [vinclozolin], the color reaction (Rhizopus nigricans isolates, PDA media containing 5 ppm of vinclozolin, after 4 days) is reported as “allowed 1 of the Rhizopus nigricans contaminated isolates to react”, the “COLOR CHANGE DIAMETER” value (isolate RP-1, PDA media, vinclozolin 5.0ppm) is reported as “T” and the “COLOR CHANGE DIAMETER” value (isolate RP-1, PDA media, vinclozolin 10.0ppm) is reported as 0 mm. For the same molecule, the “COLOR CHANGE DIAMETER” value (isolate RP-1, WA-dextrose media, vinclozolin 5.0ppm) was 0 mm, the “COLOR CHANGE DIAMETER” value (isolate RP-1, WA-dextrose media, vinclozolin 10.0ppm) was 0 mm and the “COLOR CHANGE DIAMETER” value (isolate RP-2, PDA media, vinclozolin 5.0ppm) was “T”. The “COLOR CHANGE DIAMETER” value (isolate RP-2, PDA media, vinclozolin 10.0ppm) was 0 mm, the “COLOR CHANGE DIAMETER” value (isolate RP-2, WA-dextrose media, vinclozolin 5.0ppm) was 0 mm and the “COLOR CHANGE DIAMETER” value (isolate RP-2, WA-dextrose media, vinclozolin 10.0ppm) was 0 mm.
